# “Also recorded” adds a separate entry of the source.
# Assays:
# [1] = test system: Staphylococcus epidermidis (SE) biofilm; experiment: Biofilm eradication by PEMF and Con-A t-MNPs (Example 3, preliminary data); format: cell-based; settings: PEMF + Con-A t-MNPs + antibiotic (FIG. 9)
# Procedure: Using Staphylococcus epidermidis (SE), the biofilm eradication increased over 80% when PEMF was administered at a frequency of 50 kHz and a magnetic field amplitude of 1.2 mT along with t-MNPs functionalized with Concanavalin-A (Con-A) that target components of the bacterial membrane, cell wall, and extracellular matrix.
# [2] = test system: S. epidermidis biofilms; experiment: Eradication of pre-formed S. epidermidis biofilm by PEMF + antibiotic on plastic plates (Example 4, Phases 2 and 3); format: cell-based, Staphylococcus epidermidis; settings: for combined PEMF + antibiotic treatment compared to theoretical additive effect: all time points, plastic 6-well plates; for eradication of S. epidermidis biofilm by antibiotic alone: no PEMF
# Procedure: Staphylococcus epidermidis (S. epidermidis) ATCC 14990 was used for the biofilm experiments. The observed results were further confirmed by repeating said tests on S. epidermidis strain ATCC 35984. To test the above model the cells were first grown in Trypticase Soy Broth (TSB) (30 gl^−1 in purified water, autoclaved at 121° C. for 15 min; Becton, Dickinson and Company, Los Angeles, CA). The cells were incubated for 24 hours at 37° C. and then diluted 1:100 into TSB with glucose and plated. Five phases of experiments with this set-up have been successfully completed:
# 3) Evaluation of PEMFs ability to enhance the efficacy of antibiotic (specifically oxacillin and vancomycin) treatment against fully formed S. epidermidis biofilms on cell culture treated plastic plates.
# For the biofilm inhibition experiments PEMF was applied to all experimental plates immediately after the cells were plated, with the […] being placed in a non-treated 37° C. incubator for the duration of treatment. Alternatively, for phases 2-4, cells were plated and then placed back in the non-treated 37° C. incubator for 24 hours (deemed adequate time for a biofilm to fully form through the literature and confirmed by preliminary experiments) before being exposed to PEMF.
# In each phase, PEMF exposure was delivered for the following intervals: • 0 hours ([…] group, in 37° C. incubator for entirety of experiment) • 4 hours×2 cycles (exposed to PEMF hours 1-4, placed in 37° C. incubator hours 5-8, exposed to PEMF hours 9-12) • 12 hours continuously • 24 hours continuously
# It is important to note that for all phase 3 trials, all PEMF exposure groups were tested as listed and compared to identical PEMF exposure times plus antibiotic. In phase 5 trials, PEMF exposure was delivered for alternate intervals of 0 hours, 3 hours, 6 hours, and 12 hours. This decision was due to the increased biofilm eradication ability of PEMF when combined with magnetic fNPs. As greater eradication was observed, it was deemed relevant to test shorter PEMF exposure intervals that are more applicable in the clinical setting.
# At the conclusion of said experiments, crystal violet and alamarBlue assays were used to quantify the remaining viable biofilm in each well, and CFU/ml counts were used to quantify the planktonic (free-living) S. epidermidis cells.
# The calculation performed to determine the theoretical additive effect of PEMF+antibiotic treatment and compare to the empirical effect of simultaneous PEMF and antibiotic treatment was a simple probability calculation: P(A)+(1−P(A))*P(B).
# [3] = test system: S. epidermidis biofilms; experiment: Crystal violet assay of total biomass of pre-formed S. epidermidis biofilms, PEMF with or without antibiotic (Example 1); format: cell-based, Staphylococcus epidermidis; settings: for eradication of S. epidermidis biofilm by antibiotic alone: antibiotic alone at MIC, no PEMF, CV and alamarBlue (FIG. 2, FIG. 3); for combined PEMF + antibiotic treatment compared to theoretical additive effect: antibiotic at MIC, all PEMF time points, p<0.001
# Procedure: Experiments were performed initially on S. epidermidis strain ATCC 14990 and further tested on S. epidermidis strain ATCC 35984, which is known to be a particularly strong biofilm former (Okajima, Y. et al., 2006, Invest Ophthalmol Vis Sci, 47(7):2971-2975). Trypticase soy broth (TSB) (30 g l^−1 in water, autoclaved at 121° C. for 15 minutes; BD Bacto TSB from Fisher Scientific) was used for in vitro growth of bacterial cell cultures, and 50% glucose was added to the medium at a final concentration of 0.25%. Sterile Falcon 6-well, clear, flat-bottom, tissue culture-treated, cell culture plates (Corning; Lot #1059012) and sterile CELLSTAR cell culture 24-well, PS, clear, tissue culture-treated plates (Greiner; Lot #E100501A) were used for S. epidermidis cell plating and biofilm growth (6-well plates used for crystal violet assay experiments; 24-well plates used for alamarBlue assay experiments).
# The PEMF apparatus was custom made in the laboratory and was previously described in Ghalayani Esfahani et al. 2019 (Esfahani, A. et al., 2019, J Appl Microbiol, 126(1):87-101). Briefly, the PEMF apparatus consisted of an acrylic shelved rack with wrap-around Helmholtz coils, a signal generator, and a power supply. […] A digital oscilloscope (TBS1000C, Tektronix, Beaverton, OR) was used to monitor the signal waveform. All plates not under PEMF treatment were kept in a 37° C. incubator, identical temperature to the PEMF incubator.
# S. epidermidis biofilms were grown by initially incubating freezer stock S. epidermidis cell scrapings in TSB media at 37° C. for 24 hours with shaking. Subsequently, the cells were diluted 1:100 into TSB media containing 0.25% glucose and then aliquoted, in 3 ml or 1 ml aliquots, into 6-well or 24-well plates, respectively. To test the ability of PEMF to disrupt pre-formed biofilms, inoculated plates were incubated for 24 hours to allow biofilm formation to occur. Negative controls of only TSB media containing 0.25% glucose (i.e., no cells) were also included for all plates to ensure no contamination occurred.
# Crystal Violet (CV) assay was utilized to quantify biofilm formation in vitro as previously described (Esfahani, A. et al., 2019, J Appl Microbiol, 126(1):87-101). After incubation of the biofilm in the plates with or without treatment, the media and any non-adhered cells were removed. The well of the plates were then washed with Wash Buffer three times to ensure only biofilm-adhered cells remained. Next, wells were incubated with CV at room temperature for 15 minutes. The CV stain was then removed, and wells were washed twice with water. An 80% ethanol/20% acetone solution was then added and allowed to incubate for 20 minutes at room temperature to solubilize the dye. Absorbance readings were thereafter obtained at 570 nm and recorded for each well (BMG LABTECH, FLUOstar Omega plate reader).
# To test possible synergism between PEMF exposure and antibiotic treatment, the MIC of both oxacillin and vancomycin for the specific S. epidermidis strain used was determined. S. epidermidis were first incubated in TSB media at 37° C. for 24 hours with shaking. […] After 24 hours, OD600 readings of the wells were taken. The MIC of each antibiotic was determined to be the lowest concentration to show inhibition of planktonic S. epidermidis cell growth.
# To confirm the reproducibility of results, all experiments were run identically at least three times with similar outcomes before results were analyzed and reported. […]
# [4] = test system: Staph epidermidis biofilm; experiment: AlamarBlue biofilm eradication with fNPs or NPs, PEMF and vancomycin (Example 2, Phase I); format: cell-based, Staphylococcus epidermidis
# Procedure: A series of experiments were conducted on Staphylococcus epidermidis and aureus. Staph epidermidis cells were grown, diluted, and aliquoted onto cell culture plates. Biofilm was formed by letting the bacteria grow for 48 hrs. in the tissue culture wells. Planktonic cell growth was measured using serial dilutions and subsequently determining CFU/mL counts. Biofilm assay was performed through AlamarBlue cell viability reagent and obtaining fluorescence readings at 544/590 excitation/emission (ex/em). Magnetic nanoparticles functionalized with a lectin, Concanavalin-A, were purchase from Sigma Aldrich. Vancomycin was used as an antibiotic.
# Biofilm-containing plates were exposed to different conditions and specifically: • 1) No treatment • 2) Vancomycin alone • 3) PEMF alone • 4) PEMF+Vancomycin • 5) fNPs only (5 different fNPs concentration) • 6) PEMF+fNPs (5 different fNPs concentration) • 7) PEMF+fNPs+Vancomycin (5 different fNPs concentration) • 8) NPs only (5 different fNPs concentration) • 9) PEMF+NPs (5 different fNPs concentration)
# The NPs in the functionalized and non-functionalized groups had the same composition and size distribution. PEMF exposure was delivered at 37° C. and various periods: 0 hrs, 6 hrs, and 12 hrs.
# [5] = test system: mammalian cells; settings: cited from earlier work
# [6] = up to 20 times its minimum bactericidal concentration; cited from earlier work
# [7] = test system: S. aureus (both methicillin- and vancomycin-resistant), S. epidermidis, and P. aeruginosa; settings: cited from earlier work
# [8] = test system: Staphylococcal membranes; settings: within 60 minutes of exposure; cited from earlier work
Compound,change in percentage of eradication when antibiotic was added to the nanoparticles [1],combined PEMF + antibiotic treatment compared to theoretical additive effect [2],eradication of S. epidermidis biofilm by antibiotic alone [2],"reduction of total biomass, quantified by CV assay ([3]; PEMF 24-hour exposure + antibiotic at MIC simultaneously, pre-formed biofilm, vs 48-hour control group, mean) [%]",eradication of S. epidermidis biofilm by antibiotic alone [3],combined PEMF + antibiotic treatment compared to theoretical additive effect [3],effect on eradication of adding Vancomycin to fNPs + PEMF ([4]; PEMF + fNPs + Vancomycin),increase in biofilm eradication ([4]; antibiotic used alone) [%],toxicity to mammalian cells [5],cytotoxicity levels [6],antibacterial activity [7],leakage of preloaded intracellular calcein dye [8]
Cc1onc(-c2ccccc2)c1C(=O)N[C@@H]1C(=O)N2[C@@H]1SC(C)(C)[C@@H]2C(=O)O [oxacillin],only slightly increased,significantly synergistic; also recorded: significant empirical synergism,Neither oxacillin nor vancomycin alone significantly eradicated,74,"Neither oxacillin nor vancomycin (FIG. 2, FIG. 3) alone significantly eradicated",synergistically enhanced; also recorded: significantly synergistic,–,–,–,–,–,–
CN[C@H](CC(C)C)C(=O)N[C@H]1C(=O)N[C@@H](CC(N)=O)C(=O)N[C@H]2C(=O)N[C@H]3C(=O)N[C@H](C(=O)N[C@H](C(=O)O)c4cc(O)cc(O)c4-c4cc3ccc4O)[C@H](O)c3ccc(c(Cl)c3)Oc3cc2cc(c3O[C@@H]2O[C@H](CO)[C@@H](O)[C@H](O)[C@H]2O[C@H]2C[C@](C)(N)[C@H](O)[C@H](C)O2)Oc2ccc(cc2Cl)[C@H]1O [vancomycin],only slightly increased,significantly synergistic,Neither oxacillin nor vancomycin alone significantly eradicated,–,"Neither oxacillin nor vancomycin (FIG. 2, FIG. 3) alone significantly eradicated",synergistically enhanced; also recorded: significantly synergistic,does not increase much the eradication,5,–,–,–,–
LL-37: human cathelicidin antimicrobial peptide; N-terminal-cysteine form CLLGDFFRKSKEKIGKEFKRIVQRIKDFLRNLVPRTES (SEQ ID NO: 1) (N-terminal cysteine),–,–,–,–,–,–,–,–,non-toxic,–,–,–
WR12: de novo designed synthetic antimicrobial peptide; N-terminal-cysteine form CRWWRWWRRWWRR (SEQ ID NO: 2) (N-terminal cysteine),–,–,–,–,–,–,–,–,–,negligible,potent antibacterial activity,greater than 95%

# Source: patent publication US20250276065A1, “Electro Magnetic Transducer Network in the Enhancement of Anti-infective Strategies” (priority 2022, published 2025)
